The test system of one test is 3T3-L1 adipocytes. The test is described as follows: Insulin-induced glucose uptake by 3T3-L1 adipocytes after 4-HNE / H2O2 treatment (MRM). The note with it: 500 μM for 4 hour, then 100 nM insulin for 60 minutes. The format is cell-based, mouse. The method, then: 3T3-L adipocytes (1×10^6) were treated with either 500 μM of 4-HNE or H2O2 or combination of both for 4 hour and were then stimulated with 100 nM insulin for 60 minutes. The glucose uptake is measured by a specific MRM method.

The target of another test is T1, GLUT4 (Homo sapiens, UniProt P14672).
T1 construct: SNAP (SNAP-tag fusion partner); expressed in transfected cells; host or cells: 3T3-L1 adipocytes, retrovirally transduced
T1 sequence (P14672 1-509): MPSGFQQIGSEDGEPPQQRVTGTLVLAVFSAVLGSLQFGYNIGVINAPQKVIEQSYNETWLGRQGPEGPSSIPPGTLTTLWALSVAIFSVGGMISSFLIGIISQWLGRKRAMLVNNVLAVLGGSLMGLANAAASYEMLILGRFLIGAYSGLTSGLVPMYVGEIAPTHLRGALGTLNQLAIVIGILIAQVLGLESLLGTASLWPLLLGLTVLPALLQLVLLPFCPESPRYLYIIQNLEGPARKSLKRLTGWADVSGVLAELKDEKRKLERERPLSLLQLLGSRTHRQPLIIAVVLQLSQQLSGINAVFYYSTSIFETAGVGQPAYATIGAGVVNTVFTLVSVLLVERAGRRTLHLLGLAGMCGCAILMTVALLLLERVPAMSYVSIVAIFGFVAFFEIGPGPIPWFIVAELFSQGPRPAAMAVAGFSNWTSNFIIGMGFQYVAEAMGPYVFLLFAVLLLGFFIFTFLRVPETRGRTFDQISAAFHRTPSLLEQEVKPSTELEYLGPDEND
Briefly: HNE-induced GLUT4 carbonylation (K264-HNE adduct) by MRM in 3T3-L1 adipocytes overexpressing GLUT4-SNAP. The note with it: 20 μM for 4 hour, 3T3-L1 cells overexpressing GLUT4. The format is cell-based. The procedure:
A GLUT4-SNAP fusion construct is generated. 3T3-L1 adipocytes were then retrovirally transduced with the construct to overexpress the GLUT4-SNAP protein. Twenty-four hours after the transduction, the cells were treated with and without 20 μM of 4-HNE for an additional 4 hours. This 4-HNE dose is chosen because it is similar to the physiological levels and is non-toxic. In order to identify and quantitate GLUT4 carbonylation (K264 NHE-adduct or R265 and R246 glutamic semialdehyde adducts), a mass spectroscopy-based multiple reaction monitoring (MRM) method is developed and validated.
[…] of the GLUT4 peptide found in humans were used for quantitation.

With `OO` [Example H2O2], the “reduction of insulin-induced glucose uptake” value with 3T3-L1 adipocytes was 66%.
Consider `CCCCCC(O)/C=C/C=O` (stereo not drawn) [Example 4-HNE, 4-hydroxynonenal], for which the “formation of the K264-HNE adduct (GLUT4 carbonylation)” value on GLUT4 is given as “induced the formation of the K264-HNE adduct”. Further, the “reduction of insulin-induced glucose uptake” value in the test with 3T3-L1 adipocytes is recorded as 32%.
